Test results as given in patent publication US20250154202A1, “CYCLIC EPITOPE TAGS” (BIONTECH SE, priority 2022, published 2025).
Like-named read-outs stand apart in the source and are kept apart here. Each block holds one substance with its values, some of them ahead of it. Primed or numbered codes have the meaning given here. C(Alexa680) = cysteine labeled with Alexa680 (AlexaFluor680); PEG6′ = PEG6 spacer

Assays:
[1] = tested on: target expressing cells previously incubated with the NbALFA×anti-Target Adaptor-Protein; assay: FACS cell binding analysis of linear and cyclic ALFA-peptides (AlexaFluor680); type: cell-based; settings: for binding to target expressing cells (AlexaFluor680 signal): 4 nM to 1024 nM peptide, 30 min at 4° C., after 100 nM NbALFA×anti-Target Adaptor-Protein; for binding on the controls: target-negative cells, pre-incubation with PBS or NbALFA×non-binder
Procedure: Cells were seeded in a 96-well microtiter plate (round button) to a final density of 2×10^5 and incubated in the presence of 100 nM NbALFA×anti-Target purified Adaptor-Protein (binds with one moiety to ALFA peptide and with the other moiety to cell presented target) or, as a negative control in the presence of 100 nM NbALFA×non-binder (binds with one moiety to the ALFA peptide and with the other moiety to a target which is not available in this experiment) or PBS for 30 min at 4° C. Cells were then washed and incubated with different concentrations (4 nM, 16 nM, 64 nM, 256 nM, and 1024 nM) of the linear [Ac(C-Alexa680)(PEG6)PSRLEEELRRRLTE-NH2] or cyclic [Ac(C-Alexa680)(PEG6)PSRLE(E)ELR(K)RLTE-NH2] ALFA peptide for another 30 min at 4° C. After rewashing, the cells were measured in FACS Canto II (BD Biosciences). AlexaFluor680 signal was used to detect the binding of ALFA peptides. Therefore, excitation Laser Line 633 nm was used to detect the AlexaFluor 680 signal.

in vitro [2] = settings: human, plasma, Conc. (% of T0)
Procedure: (§1) Plasma stability measurements were performed by spiking 5 μl of a 1 mM compound stock solution in DMSO into 495 μl of human or mouse Li-heparin plasma (Innovative Research, Cat. No, IPLALIH5OML (human) and IMS-BC-N (Balb C mouse). The spiked plasma was distributed in 50 μl aliquots into capped PCR tubes for incubation at 37° C. At each time point (0, 2, 6, 24 hours*) 3*aliquots were withdrawn from the incubator. Enzymatic reactions were quenched directly after withdrawal by adding 100 μl of acetonitrile/formic acid=99/1 (v/v). Quenched samples were stored at ambient temperature until the end of the incubation period (24 hrs*). After centrifugation, the supernatant was transferred into fresh vials and analyzed by LC-MS/MS in ESI positive mode (Waters ACQUITY UPLC I-Class System (SM-FTN) with Xevo TQD triple quadrupole mass spectrometer with control software Waters MassLynx). […] Values below the limit of quantification (0.1 μM) and outliers of triplicate results were excluded from further calculations. An exponential regression curve was fitted onto the concentration results. Half-life times were calculated from the slope of the regression curve (t1/2=ln(2)/slope).
(§2) For some samples, as indicated below, the incubation time was 6 hours. The 24 hour data was measured in triplicates whereas the 6 hour data was measured in duplicates.

[3] = mouse, in vivo, iv; for AUC(0-inf): AUC0-inf; for AUC(0-t): AUC0-t
Procedure: (§3) C57BL/6NRj mice were obtained from Janvier Labs, France. In this study, approximately 8-week-old female mice were used.
(§4) Prior to administration into the lateral tail vein, the body weight of the animals was determined to calculate the individual volume of the injecting compound (5 mL/kg body weight). The injection, as well as the blood sampling, were carried out under short anesthesia (0.7 L/min O2, 1.7 L/min N2O, 2% Isoflurane). Blood was sampled from the retro-orbital plexus using microhematocrit capillary (Ø 0.8 mm) and collected into K3EDTA tubes, at the time points indicated in Table 10.
(§5) The plasma was separated by centrifugation (10,000×g; 10 min; 4° C.), aliquoted into microtubes and stored at −80° C.
(§6) 20 μl of each plasma sample was transferred into PCR tubes. 80 μl IS (internal standard)-solution in acetonitrile+1% FA was added for protein precipitation.
(§7) The sample tubes were sealed with pierceable cap mats and vortexed. After homogenization for 5 min in an ultrasonic bath the samples were centrifuged at 3000 rpm at ambient temperature for 15 min. 1 μl supernatant was injected into the instrument for LC-MS/MS analysis. For LC-MS/MS quantification a ExionLC™ UHPLC coupled to a QTRAP® 6500+ mass spectrometer (Sciex) was used in ESI positive mode. Parameters for mass spectrometry were listed in the tables below, Chromatographic separation was achieved on a ACQUITY UPLC BEH C18 column (Waters, 1.7 μm, 2.1×50 mm).
(§8) Compound concentrations in plasma samples were calculated using a 10-point calibration curve in plasma over a concentration range of 1 to 1000 ng/ml. QC samples of 1, 10, 100, 1000 ng/ml were analyzed before and after each dose group. Samples exceeding the upper limit of quantification (1000 ng/ml) were re-analyzed after 10-fold dilution in blank plasma. All calculations were performed in Sciex OS Version 1.7.0.36606 and MS-EXCEL®.
(§9) Pharmacokinetic parameters were calculated for both compounds using the software Kinetica (version 4.4.1, Thermo Scientific) applying a non-compartmental model (NCA).

[4] = mouse, in vivo, iv
Procedure: as §3, §4, §5, §6, §7, §8, §9

in vitro [5] = settings: Balb C, mouse, plasma
in vivo = settings: female, C57BL/6NRj, mouse, iv, 10 mg/kg
Procedure: as §3, §4, §5, §6, §7, §8, §9

[6] = human, plasma
Procedure: as §1, §2

[7] = mouse, plasma

Substance: Ac(C-Alexa680)(PEG6)PSRLE(E)ELR(K)RLTE-NH2 [cyclic ALFA peptide]
binding to target expressing cells (AlexaFluor680 signal) [1]: bind only to target expressing cells previously incubated with the NbALFA×anti-Target Adaptor-Protein | binding on the controls [1]: No binding

Substance: Ac(C-Alexa680)(PEG6)PSRLEEELRRRLTE-NH2 ({Ac-C(Alexa680)-PEG6′}-PSRLEEELRRRLTE-NH2) [linear ALFA peptide, linear ALFA-peptide conjugated to AlexaFluor680, reference compound]
binding to target expressing cells (AlexaFluor680 signal) [1]: bind only to target expressing cells previously incubated with the NbALFA×anti-Target Adaptor-Protein | binding on the controls [1]: No binding

remaining at 1 h, 10 µM (in vitro [2]): 89% | remaining at 3 h, 10 µM (in vitro [2]): 78.9% | remaining at 6 h, 10 µM (in vitro [2]): 66.9% | MRT inf ([3]; 3 mg/kg): 4 min | MRT last ([3]; 3 mg/kg): 3.7 min | Tmax ([3]; 3 mg/kg): 5 min | clearance ([3]; 3 mg/kg): 962 mL/min/kg | AUC(0-inf) ([3]; 3 mg/kg): ~52 ng·h/mL | AUC(0-t) ([3]; 3 mg/kg): 51 ng·h/mL | C0 ([3]; 3 mg/kg): ~656 ng/mL | Cmax ([3]; 3 mg/kg): 306 ng/mL | Vd ([3]; 3 mg/kg, Vss): 3.89 L/kg | Vd ([3]; 3 mg/kg, Vz): ~6.3 L/kg | MRT inf ([3]; 10 mg/kg): 4.1 min | MRT last ([3]; 10 mg/kg): 4 min | Tmax ([3]; 10 mg/kg): 5 min | clearance ([3]; 10 mg/kg): 724 mL/min/kg | AUC(0-inf) ([3]; 10 mg/kg): 230 ng·h/mL | AUC(0-t) ([3]; 10 mg/kg): 230 ng·h/mL | C0 ([3]; 10 mg/kg): ~2400 ng/mL | Cmax ([3]; 10 mg/kg): 1660 ng/mL | Vd ([3]; 10 mg/kg, Vss): 2.95 L/kg | Vd ([3]; 10 mg/kg, Vz): 4.48 L/kg | AUCextra ([4]; 3 mg/kg): ~1.5^(1) % | Vc ([4]; 3 mg/kg): ~4574^(1) mL/kg | t1/2effective ([4]; 3 mg/kg): ~2.6^(1) min | t1/2initial ([4]; 3 mg/kg): ~1.6^(1) min | t1/2terminal ([4]; 3 mg/kg): ~4.5^(1) min | λinitial ([4]; 3 mg/kg): 0.45^(2) min^−1 | λterminal ([4]; 3 mg/kg): 0.15^(2) min^−1 | AUCextra ([4]; 10 mg/kg): 0.2% | Vc ([4]; 10 mg/kg): ~4175^(1) mL/kg | t1/2effective ([4]; 10 mg/kg): 2.8 min | t1/2initial ([4]; 10 mg/kg): ~1.3^(1) min | λinitial ([4]; 10 mg/kg): 0.52^(2) min^−1 | λterminal ([4]; 10 mg/kg): 0.16 min⁻¹ | remaining at 2 h, 10 µM (in vitro [5]): 72.7% | remaining at 6 h, 10 µM (in vitro [5]): 33.8% | half-life (in vivo): 4.3 min | half-life ([6]; Flag (half-life, assay exceeded)): > 360 min | half-life ([6]; Half-life time): 646 min | half-life [7]: 228 min
Substance: Ac-PSRLEEELRRRLTE-NH2 [SD14316, Ac-Pro-Ser-Arg-Leu-Glu-Glu-Glu-Leu-Arg-Arg-Arg-Leu-Thr-Glu-NH2]
